Assay results taken from patent EP4778922A1, “BICYCLIC COMPOUND, AND PREPARATION METHOD THEREFOR AND PHARMACEUTICAL USE THEREOF” (Shanghai Jeyou Pharmaceutical Co., Ltd., priority 2023, dated 2025).
pIC50: −log10 of the molar value. Like-named read-outs stand apart in the source and are kept apart here.

Assays:
[1] = tested on: 22RV1 cells; assay: Cell proliferation inhibition assay in 22RV1 cells (CellTiter-Glo, 7 days); type: cell-based, human; settings: Homo sapiens
Protocol: • 1. The human prostate cancer cell lines 22RV1 and LNCaP were purchased from ATCC. […] The cell concentration was adjusted to an appropriate concentration (determined based on the results of cell density optimization experiments), and the cells were seeded into a 96-well plate. A 100 µL cell suspension was added, resulting in 3000 cells per well. […] On the second day, for 22Rv1 cells, test compounds at different concentrations were added, and the cells were incubated at 37°C in a 5% CO2 incubator for 7 days; for LNCaP cells, test compounds at different concentrations were added first, and after 1 hour of treatment, 0.2 nM DHT was added. The cells were then incubated at 37°C in a 5% CO2 incubator for 7 days. • 4. After the incubation period, a volume of CellTiter-Glo detection reagent equal to the volume of the culture medium was added to each well. The plate was shaken and mixed thoroughly for 5 minutes, then incubated at room temperature for 10 minutes. Readings were taken using a PerkinElmer EnVision microplate reader. • 5.
The IC50 curve was fitted and the IC50 value was calculated using the software GraphPad Prism 8 with the calculation formula XY-analysis/Nonlinear regression (curve fit)/Dose response-Inhibition/log (inhibitor) vs. response-Variable slope (four parameters).

[2] = Mouse pharmacokinetic test; type: in vivo, ICR mice; settings: 30 mg/kg, PO-30mpk; for Tmax: read-out: Tmax
Protocol: Formulation preparation: The dosing solutions were prepared on the day of administration.
Six healthy male naive ICR mice weighing 25-30 g were selected and divided into two groups (intravenous and oral groups), with three mice in each group, and administered a single dose. […] Feeding was resumed 4 h after administration. Timing was initiated following intravenous and oral administration. […] The collected whole blood was briefly vortexed twice for mixing, placed on wet ice, and centrifuged at 4°C and 8000 rpm for 5 min within 1 h. The supernatant plasma was collected and stored at -80°C until processing and analysis. Table 3: Pharmacokinetics in mice

Compound `CC(C)(c1ccc(-c2ccc(OCc3ccnc(N4CC(S(=N)(=O)C5CC5)C4)n3)cc2)cc1)c1cc(Cl)c(OCCCl)c(C#N)c1` (racemic) [Compound 295] has a pIC50 ([1]; 22Rv1, 168 h) of 6.48.

`CC(C)(c1ccc(-c2cnc(OCc3ccnc(N4CC(S(C)(=N)=O)C4)n3)cn2)cc1)c1cc(Cl)c(OCCCl)c(C#N)c1` (racemic) [Compound 323] showed a pIC50 ([1]; 22Rv1, 168 h) of 6.24.

`CC(C)(c1ccc(-c2cnc(OCc3ccnc(N4CC(S(=N)(=O)C5CC5)C4)n3)cn2)cc1)c1cc(Cl)c(OCCCl)c(C#N)c1` (racemic) [Compound 350] gave a pIC50 ([1]; 22Rv1, 168 h) of 6.34.

`CC(C)(c1ccc(-c2ccc(OCc3ccnc(S(C)(=O)=O)n3)cc2)cc1)c1cc(Cl)c(OCCCl)c(C#N)c1` [Compound 1] gave a pIC50 ([1]; 168 h) of 5.97.

Compound `CC(C)(c1ccc(-c2cccc(OCc3ccnc(S(C)(=O)=O)n3)c2)cc1)c1cc(Cl)c(OCCCl)c(C#N)c1` [Compound 4] has a pIC50 ([1]; 168 h) of 5.86.

For `CC(C)(c1ccc(-c2cccc(OCc3ccnc(P(C)(C)=O)n3)c2)cc1)c1cc(Cl)c(OCCCl)c(C#N)c1` [Compound 6], the AUC(0-inf) ([2]; in vivo) was 447 µg·h/mL, the Cmax ([2]; in vivo) was 62800 ng/mL and the half-life ([2]; in vivo) was 2.2 h. For the same compound, the Tmax ([2]; in vivo) was 2.7 h.

With `CC(C)(c1ccc(N2CCC(Oc3ccnc(P(C)(C)=O)n3)CC2)cc1)c1cc(Cl)c(OCCCl)c(C#N)c1` [Compound 10] the AUC(0-inf) ([2]; in vivo) was 316 µg·h/mL, the Cmax ([2]; in vivo) was 31000 ng/mL and the half-life ([2]; in vivo) was 5.4 h. It also gave a Tmax ([2]; in vivo) of 3.3 h.

`CC(C)(c1ccc(-c2ccc(OCc3ccnc(P(C)(C)=O)n3)cn2)cc1)c1cc(Cl)c(OCCCl)c(C#N)c1` [Compound 15] gave a pIC50 ([1]; 168 h) of 5.87.

Work on `CC(C)(c1ccc(-c2ccc(OCc3ccnc(N=S4(=O)CCCC4)n3)nc2)cc1)c1cc(Cl)c(OCCCl)c(C#N)c1` [Compound 18] yielded a pIC50 ([1]; 168 h) of 5.84.

For `CC(C)(c1ccc(-c2ccc(OCc3ccnc(N=S4(=O)CCOCC4)n3)nc2)cc1)c1cc(Cl)c(OCCCl)c(C#N)c1` [Compound 19], the pIC50 ([1]; 168 h) was 6.07.

`CC(C)(c1ccc(-c2ccc(C#Cc3ccnc(N=S4(=O)CCCC4)n3)cc2)cc1)c1cc(Cl)c(OCCCl)c(C#N)c1` [Compound 21] showed a pIC50 ([1]; 168 h) of 6.47.

`CC(C)(c1ccc(-c2ccc(OCc3ccnc(N4CC5(C4)CS(=O)(=O)C5)n3)cc2)cc1)c1cc(Cl)c(OCCCl)c(C#N)c1` [Compound 24] showed a pIC50 ([1]; 22Rv1, 168 h) of 5.99.

Compound `CC(C)(c1ccc(-c2cnc(OCc3ccnc(N4CC5(COC5)C4)n3)nc2)cc1)c1cc(Cl)c(OCCCl)c(C#N)c1` [Compound 35] has a pIC50 ([1]; 168 h) of 6.08.

`CC(C)(c1ccc(-c2cnc(OCc3ccnc(N=S4(=O)CCCC4)n3)nc2)cc1)c1cc(Cl)c(OCCCl)c(C#N)c1` [Compound 36] gave a pIC50 ([1]; 168 h) of 5.87.

`CC(C)(c1ccc(-c2ccc(OCc3ccnc(P(C)(C)=O)n3)cc2)cc1)c1cnc2c(cnn2CCCl)c1` [Compound 42] showed an AUC(0-inf) ([2]; plasma) of 422 µg·h/mL, a Cmax ([2]; plasma) of 34300 ng/mL and a half-life ([2]; plasma) of 4.42 h. The Tmax ([2]; plasma) was 3.33 h.

`CC(C)(c1ccc(-c2ccc(OCc3ccnc(N=S4(=O)CCOCC4)n3)cc2)cc1)c1cc(Cl)c(OCCCl)c(C#N)c1` [Compound 43] gave a pIC50 ([1]; 168 h) of 6.52.

For `CC(C)(c1ccc(-c2ccc(OCc3ccnc(N4CC5(COC5)C4)n3)cc2)cc1)c1cnc2c(cnn2CCCl)c1` [Compound 45], the pIC50 ([1]; 168 h) was 6.00.

Work on `CC(C)(c1ccc(-c2ccc(OCc3ccnc(N4CC(O)C4)n3)cc2)cc1)c1cc(Cl)c(OCCCl)c(C#N)c1` [Compound 54] yielded a pIC50 ([1]; 168 h) of 5.85.

Compound `CC(C)(c1ccc(-c2ccc(OCC3CCOCC3)cc2)cc1)c1cc(Cl)c(OCCCl)c(C#N)c1` [Compound 74] has a pIC50 ([1]; 168 h) of 6.54.

`CC(C)(c1ccc(-c2ccc(OC3CCN(c4ccnc(N5CC6(COC6)C5)n4)CC3)cc2)cc1)c1cc(Cl)c(OCCCl)c(C#N)c1` [Compound 77] gave a pIC50 ([1]; 168 h) of 5.83.

`CC(C)(c1ccc(-c2ccc(OC3CCN(c4ccnc(N5CC6(C5)CS(=O)(=O)C6)n4)CC3)cc2)cc1)c1cc(Cl)c(OCCCl)c(C#N)c1` [Compound 78] gave a pIC50 ([1]; 168 h) of 6.15.

`CC(C)(c1ccc(-c2ccc(OCC3CC(CN4CC5(C4)CS(=O)(=O)C5)C3)cc2)cc1)c1cc(Cl)c(OCCCl)c(C#N)c1` (centres unmarked) [Compound 80] showed a pIC50 ([1]; 168 h) of 6.96.

With `CC(C)(c1ccc(-c2ccc(/C=C/c3ccnc(P(C)(C)=O)n3)cc2)cc1)c1cc(Cl)c(OCCCl)c(C#N)c1` [Compound 228] the AUC(0-inf) ([2]; plasma, po) was 242 µg·h/mL, the Cmax ([2]; plasma, po) was 14500 ng/mL and the half-life ([2]; plasma, po) was 6 h. For the same compound, the Tmax ([2]; plasma, po) was 4 h.
